Results: ChEMBL document CHEMBL4196004, “Discovery of novel mifepristone derivatives via suppressing KLF5 expression for the treatment of triple-negative breast cancer” (Eur J Med Chem, 2018)
Active and inactive are the calls of the source. The rule behind the calls is not given here.

Assays:
[1] = system: HCC1937; assay: Antiproliferative activity against human HCC1937 cells after 48 hrs by SRB assay; type: functional, cell-based; conditions: HCC1937, 48 h
[2] = system: SUM149PT; assay: Antiproliferative activity against human SUM149PT cells after 48 hrs by SRB assay; type: functional, cell-based
[3] = Tmax in Sprague-Dawley rat at 30 mg/kg administered via oral gavage by HPLC analysis; type: ADME, organism-based; conditions: in vivo
[4] = system: SUM149PT; assay: Cell cycle arrest in human SUM149PT cells assessed as increase in cells at G1 phase after 24 hrs by propidium iodide staining-based flow cytometric analysis; type: functional
[5] = system: HCC1937; assay: Inhibition of KLF5 expression levels in human HCC1937 cells after 24 hrs by Western blot analysis; type: functional, cell-based
[6] = system: Mus musculus; assay: Acute toxicity in KM mouse assessed as behaviour change at 400 mg/kg, po administered as single dose; type: organism-based; conditions: in vivo
[7] = system: Rattus norvegicus; assay: AUC (0 to t) in Sprague-Dawley rat at 30 mg/kg administered via oral gavage by HPLC analysis; type: ADME, organism-based; conditions: in vivo
[8] = system: SUM149PT; assay: Inhibition of KLF5 expression levels in human SUM149PT cells after 24 hrs by Western blot analysis; type: functional, cell-based
[9] = system: Homo sapiens; assay: Antitumor activity against human UM1 cells implanted in Balb/C nude mouse at 1 mg, ip qd for 4 weeks; type: functional, organism-based
[10] = system: SUM149PT; assay: Cell cycle arrest in human SUM149PT cells assessed as decrease in cells at S phase at 5 to 10 uM after 24 hrs by propidium iodide staining-based flow cytometric analysis; type: functional
[11] = system: SUM149PT; assay: Induction of PARP cleavage in human SUM149PT cells after 24 hrs by Western blot analysis; type: functional, cell-based
[12] = system: Mus musculus; assay: Toxicity in Balb/C nude mouse implanted with human UM1 cells assessed as loss of body weight at 1 mg, ip qd for 4 weeks; type: organism-based; conditions: in vivo, 672 h
[13] = system: HCC1937; assay: Induction of PARP cleavage in human HCC1937 cells after 24 hrs by Western blot analysis; type: functional, cell-based
[14] = Elimination half life in Sprague-Dawley rat at 30 mg/kg administered via oral gavage by HPLC analysis; type: ADME, organism-based; conditions: in vivo, read-out: beta t1/2 (converted)
[15] = Cmax in Sprague-Dawley rat at 30 mg/kg administered via oral gavage by HPLC analysis; type: ADME, organism-based; design: dose 30 mg/kg, route oral; conditions: in vivo
[16] = system: Rattus norvegicus; assay: AUC (0 to infinity) in Sprague-Dawley rat at 30 mg/kg administered via oral gavage by HPLC analysis; type: ADME, organism-based; design: dose 30 mg/kg, route oral, time infinity; conditions: in vivo
[17] = system: Mus musculus; assay: Acute toxicity in KM mouse assessed as loss of body weight at 400 mg/kg, po administered as single dose and measured every 3 days; type: organism-based; conditions: in vivo, 72 h
[18] = system: SUM149PT; assay: Cell cycle arrest in human SUM149PT cells assessed as increase in cells at G1 phase at 20 uM after 24 hrs by propidium iodide staining-based flow cytometric analysis; type: functional
[19] = system: SUM149PT; assay: Cell cycle arrest in human SUM149PT cells assessed as decrease in cells at S phase at 20 uM after 24 hrs by propidium iodide staining-based flow cytometric analysis; type: functional

CC#C[C@]1(O)CC[C@H]2[C@@H]3CCC4=CC(=O)CCC4=C3[C@@H](c3ccc(N(C)S(=O)(=O)c4ccccc4)cc3)C[C@@]21C
IC50 [1]: > 20 µM
IC50 [2]: > 20 µM

CC#C[C@]1(O)CC[C@H]2[C@@H]3CCC4=CC(=O)CCC4=C3[C@@H](c3ccc(N(C)C(=O)c4ccncc4)cc3)C[C@@]21C
IC50 [1]: > 20 µM
IC50 [2]: > 20 µM

CC#C[C@]1(O)CC[C@H]2[C@@H]3CCC4=CC(=O)CCC4=C3[C@@H](c3ccc(N(C)C(=O)c4ccc(OC)c(Cl)c4)cc3)C[C@@]21C
IC50 [2]: > 20 µM

CC#C[C@]1(O)CC[C@H]2[C@@H]3CCC4=CC(=O)CCC4=C3[C@@H](c3ccc(N(C)C(C)=O)cc3)C[C@@]21C
IC50 [1]: > 20 µM
IC50 [2]: > 20 µM

CC#C[C@]1(O)CC[C@H]2[C@@H]3CCC4=CC(=O)CCC4=C3[C@@H](c3ccc(N(C)C(=O)c4cccs4)cc3)C[C@@]21C
IC50 [2]: 12.5 µM

CC#C[C@]1(O)CC[C@H]2[C@@H]3CCC4=CC(=O)CCC4=C3[C@@H](c3ccc(N(C)C(=O)c4ccc(Cl)c(F)c4)cc3)C[C@@]21C
IC50 [2]: > 20 µM

CC#C[C@]1(O)CC[C@H]2[C@@H]3CCC4=CC(=O)CCC4=C3[C@@H](c3ccc(N(C)C(=O)c4cccc(Cl)c4)cc3)C[C@@]21C
IC50 [1]: 10.6 µM
IC50 [2]: 14.3 µM

CC#C[C@]1(O)CC[C@H]2[C@@H]3CCC4=CC(=O)CCC4=C3[C@@H](c3ccc(N(C)C(=O)Cc4ccccc4)cc3)C[C@@]21C
IC50 [1]: 9 µM
IC50 [2]: 7 µM

CC#C[C@]1(O)CC[C@H]2[C@@H]3CCC4=CC(=O)CCC4=C3[C@@H](c3ccc(N(C)S(=O)(=O)c4ccc(C)cc4)cc3)C[C@@]21C
IC50 [1]: > 20 µM
IC50 [2]: > 20 µM

CC#C[C@]1(O)CC[C@H]2[C@@H]3CCC4=CC(=O)CCC4=C3[C@@H](c3ccc(N(C)C(=O)c4ccc(OC)cc4)cc3)C[C@@]21C
IC50 [2]: 12 µM

CC#C[C@]1(O)CC[C@H]2[C@@H]3CCC4=CC(=O)CCC4=C3[C@@H](c3ccc(N(C)C(=O)c4ccc(C)c(Cl)c4)cc3)C[C@@]21C
IC50 [2]: 4.7 µM

COc1cccc2c1C(=O)c1c(O)c3c(c(O)c1C2=O)C[C@@](O)(C(=O)CO)C[C@@H]3O[C@H]1C[C@H](N)[C@H](O)[C@H](C)O1 [DOXORUBICIN]
IC50 [1]: 0.44 µM
IC50 [2]: 0.36 µM

CC#C[C@]1(O)CC[C@H]2[C@@H]3CCC4=CC(=O)CCC4=C3[C@@H](c3ccc(N(C)C(=O)c4cnccn4)cc3)C[C@@]21C
IC50 [2]: > 20 µM

CC#C[C@]1(O)CC[C@H]2[C@@H]3CCC4=CC(=O)CCC4=C3[C@@H](c3ccc(NC)cc3)C[C@@]21C [DESMETHYLMIFEPRISTONE]
IC50 [1]: > 20 µM
IC50 [2]: > 20 µM

CC#C[C@]1(O)CC[C@H]2[C@@H]3CCC4=CC(=O)CCC4=C3[C@@H](c3ccc(N(C)C(=O)c4ccc(Cl)c(C(F)(F)F)c4)cc3)C[C@@]21C
IC50 [2]: > 20 µM

CC#C[C@]1(O)CC[C@H]2[C@@H]3CCC4=CC(=O)CCC4=C3[C@@H](c3ccc(N(C)C(=O)c4ccc5ccccc5c4)cc3)C[C@@]21C
IC50 [1]: 6.1 µM
IC50 [2]: 5 µM

CC#C[C@]1(O)CC[C@H]2[C@@H]3CCC4=CC(=O)CCC4=C3[C@@H](c3ccc(N(C)C(=O)c4cc(Cl)cc(Cl)c4)cc3)C[C@@]21C
IC50 [2]: 9 µM

CC#C[C@]1(O)CC[C@H]2[C@@H]3CCC4=CC(=O)CCC4=C3[C@@H](c3ccc(N(C)C(=O)c4ccc(-c5ccccc5)cc4)cc3)C[C@@]21C
IC50 [1]: > 20 µM
IC50 [2]: 16 µM

CC#C[C@]1(O)CC[C@H]2[C@@H]3CCC4=CC(=O)CCC4=C3[C@@H](c3ccc(N(C)C(=O)c4cncs4)cc3)C[C@@]21C
IC50 [2]: > 20 µM

CC#C[C@]1(O)CC[C@H]2[C@@H]3CCC4=CC(=O)CCC4=C3[C@@H](c3ccc(N(C)C(=O)c4ccc(C(C)(C)C)cc4)cc3)C[C@@]21C
IC50 [1]: 4.2 µM
IC50 [2]: 3.5 µM

CC#C[C@]1(O)CC[C@H]2[C@@H]3CCC4=CC(=O)CCC4=C3[C@@H](c3ccc(N(C)C(=O)c4cc(Cl)ccc4F)cc3)C[C@@]21C
IC50 [2]: > 20 µM

CC#C[C@]1(O)CC[C@H]2[C@@H]3CCC4=CC(=O)CCC4=C3[C@@H](c3ccc(N(C)C(=O)c4cccc(OC)c4)cc3)C[C@@]21C
IC50 [2]: 18 µM

CC#C[C@]1(O)CC[C@H]2[C@@H]3CCC4=CC(=O)CCC4=C3[C@@H](c3ccc(N(C)C(=O)c4ccccn4)cc3)C[C@@]21C
IC50 [1]: > 20 µM
IC50 [2]: > 20 µM

CC#C[C@]1(O)CC[C@H]2[C@@H]3CCC4=CC(=O)CCC4=C3[C@@H](c3ccc(N(C)C(=O)c4ccc(Cl)c(Cl)c4)cc3)C[C@@]21C
Tmax [3]: 2.17 h
Activity [4]: Dose-dependent effect
inhibition [5]: Dose-dependent effect
Activity [6]: Non-Toxic
AUCt [7]: 2.45 mg/L/h
inhibition [8]: Dose-dependent effect
Activity [9]: Active
Activity [10]: Active
Activity [11]: Dose-dependent effect
Activity [12]: Non-Toxic
Activity [13]: Dose-dependent effect
IC50 [1]: 7.9 µM
half-life [14]: 2.88 h
Cmax [15]: 550 ng/mL
IC50 [2]: 3.6 µM
AUC [16]: 2910 ng·h/mL
Activity [17]: Non-Toxic

CC#C[C@]1(O)CC[C@H]2[C@@H]3CCC4=CC(=O)CCC4=C3[C@@H](c3ccc(N(C)C(=O)c4ccccc4)cc3)C[C@@]21C
IC50 [1]: 14.7 µM
IC50 [2]: 10.5 µM

CC#C[C@]1(O)CC[C@H]2[C@@H]3CCC4=CC(=O)CCC4=C3[C@@H](c3ccc(N(C)C(=O)c4cccc(C)c4)cc3)C[C@@]21C
IC50 [1]: 9 µM
IC50 [2]: 5 µM

CC#C[C@]1(O)CC[C@H]2[C@@H]3CCC4=CC(=O)CCC4=C3[C@@H](c3ccc(N(C)C(=O)c4ccc(C)cc4)cc3)C[C@@]21C
IC50 [1]: 9.1 µM
IC50 [2]: 5 µM

CC#C[C@]1(O)CC[C@H]2[C@@H]3CCC4=CC(=O)CCC4=C3[C@@H](c3ccc(N(C)C(=O)c4ccc(F)c(Cl)c4)cc3)C[C@@]21C
IC50 [2]: 9 µM

CC#C[C@]1(O)CC[C@H]2[C@@H]3CCC4=CC(=O)CCC4=C3[C@@H](c3ccc(N(C)C(=O)c4ccccc4Cl)cc3)C[C@@]21C
IC50 [1]: 17.4 µM
IC50 [2]: > 20 µM

CC#C[C@]1(O)CC[C@H]2[C@@H]3CCC4=CC(=O)CCC4=C3[C@@H](c3ccc(N(C)C(=O)c4ccc(Cl)cc4)cc3)C[C@@]21C
IC50 [1]: 9.7 µM
IC50 [2]: 16.2 µM

CC#C[C@]1(O)CC[C@H]2[C@@H]3CCC4=CC(=O)CCC4=C3[C@@H](c3ccc(N(C)C(=O)c4nccs4)cc3)C[C@@]21C
IC50 [2]: > 20 µM

CC#C[C@]1(O)CC[C@H]2[C@@H]3CCC4=CC(=O)CCC4=C3[C@@H](c3ccc(N(C)C(=O)c4ccc(C(C)C)cc4)cc3)C[C@@]21C
IC50 [1]: 4.2 µM
IC50 [2]: 4.2 µM

CC#C[C@]1(O)CC[C@H]2[C@@H]3CCC4=CC(=O)CCC4=C3[C@@H](c3ccc(N(C)C(=O)c4ccccc4OC)cc3)C[C@@]21C
IC50 [2]: > 20 µM

CC#C[C@]1(O)CC[C@H]2[C@@H]3CCC4=CC(=O)CCC4=C3[C@@H](c3ccc(N(C)C)cc3)C[C@@]21C [MIFEPRISTONE]
Tmax [3]: 3.38 h
inhibition [5]: Dose-dependent effect
AUCt [7]: 1.97 mg/L/h
inhibition [8]: Dose-dependent effect
Activity [9]: Active
Activity [18]: inactive
Activity [11]: Dose-dependent effect
Activity [19]: Active
Activity [12]: Non-Toxic
Activity [13]: Dose-dependent effect
IC50 [1]: > 20 µM
half-life [14]: 3.02 h
Cmax [15]: 360 ng/mL
IC50 [2]: 15 µM
AUC [16]: 2420 ng·h/mL

CC#C[C@]1(O)CC[C@H]2[C@@H]3CCC4=CC(=O)CCC4=C3[C@@H](c3ccc(N(C)C(=O)c4ccc(C)c(C)c4)cc3)C[C@@]21C
IC50 [1]: 6.1 µM
IC50 [2]: 5.6 µM
